Experimental data reported in ChEMBL document CHEMBL1127015, “Centrally acting serotonergic and dopaminergic agents. 1. Synthesis and structure-activity relationships of 2,3,3a,4,5,9b-hexahydro-1H-benz[e]indole derivatives” (J Med Chem, 1993).
“And” between values parts separate entries of the source, which are not always exact repeats. Equal entries are not always repeated.

Columns and labels:
[1] = molecular target: T1, D(2) dopamine receptor (Homo sapiens, UniProt P14416); test: Binding affinity against [3H]U-86,170-labeled dopamine receptor D2 in cloned CHO cells; type: cell-based
[2] = system: Mus musculus; test: Maximum decrease in temperature when compound is administered subcutaneously; type: functional
[3] = molecular target: T2, D(2) dopamine receptor (Rattus norvegicus, UniProt P61169); test: Inhibitory concentration against [3H]raclopride-labeled dopamine receptor D2 in rat striatum; type: tissue-based
[4] = system: Mus musculus; test: Effective dose on hypothermia in mouse when administered through peroral route; type: functional; conditions: po
[5] = system: Mus musculus; test: Maximum decrease in temperature when compound is administered through peroral route; type: functional
[6] = system: Mus musculus; test: Effective dose on hypothermia in mouse when administered subcutaneously; type: functional; conditions: sc
[7] = system: Rattus norvegicus; test: Inhibition of firing rates of dopaminergic neurons in the substantia nigra pars compacta by intravenous injection in rats.; type: functional
[8] = molecular target: T1, D(2) dopamine receptor; test: Intrinsic activity from GTP shift using membranes from CHO cells transfected with mammalian dopamine receptor D2.; type: cell membranes
[9] = molecular target: T2, D(2) dopamine receptor; test: Binding affinity against [3H]raclopride-labeled dopamine receptor D2 in rat striatum.; type: tissue-based
[10] = system: Mus musculus; test: Ability to stimulate dopaminergic systems by effect on locomotor activity in reserpinized mice when a dose of 3.6 micro mol/kg is administered intraperitoneally; type: functional
[11] = system: Mus musculus; test: Antagonism of apomorphine effects for 0-10 minutes in reserpinized mice following 0.4 umol/kg i.p.; type: functional; set-up: unit not given beside the values
[12] = system: Mus musculus; test: Antagonism of apomorphine effects in reserpinized mice following 0.4 umol/kg i.p.; type: functional
[13] = system: Mus musculus; test: Ability to stimulate dopaminergic systems by effect on locomotor activity in reserpinized mice when a dose of 36 micro mol/kg is administered intraperitoneally; type: functional
[14] = system: Mus musculus; test: Antagonism of apomorphine effects for 10-20 minutes in reserpinized mice following 0.4 umol/kg i.p.; type: functional
[15] = system: Felis catus; test: Maximum decrease of arterial blood pressure at sympathetic nerve activity (SND) in anesthetized cat has been observed following 1 mg/kg dose; type: functional; set-up: scale not given: the % may be the effect or the level left
[16] = system: Mus musculus; test: Antagonism of apomorphine for 10-20 minutes in reserpinized mice when a dose of 3.6 micro mol/kg is administered intraperitoneally; type: functional
[17] = system: Mus musculus; test: Antagonism of apomorphine for 10-20 minutes in reserpinized mice when a dose of 36 micro mol/kg is administered intraperitoneally; type: functional
[18] = species on record: Rattus norvegicus; test: Effect on the synthesis rates of serotonin (5-HTP accumulation) in the rat ventral limbic brain region at 10.7uMkg.; type: functional, Limbic system
[19] = system: Mus musculus; test: Antagonism of apomorphine for 0-10 minutes in reserpinized mice when a dose of 3.6 micro mol/kg is administered intraperitoneally; type: functional
[20] = system: Mus musculus; test: Antagonism of apomorphine in reserpinized mice when a dose of 3.6 micro mol/kg is administered intraperitoneally; type: functional
[21] = system: Mus musculus; test: Antagonism of apomorphine in reserpinized mice when a dose of 36 micro mol/kg is administered intraperitoneally; type: functional
[22] = system: Felis catus; test: Maximum decrease of sympathetic nerve activity (SND) in anesthetized cat has been expressed as percent control; type: functional; set-up: scale not given: the % may be the effect or the level left
[23] = system: Mus musculus; test: Antagonism of apomorphine for 0-10 minutes in reserpinized mice when a dose of 36 micro mol/kg is administered intraperitoneally; type: functional
[24] = system: Mus musculus; test: Increase in locomotor activity in reserpinized mice following 0.4 umol/kg i.p.; type: functional
[25] = species on record: Rattus norvegicus; test: Effect on the synthesis rates of serotonin (5-HTP accumulation) in the rat ventral limbic brain region at 10.7uMkg. value as percent change from the control; type: functional, Limbic system
[26] = system: Felis catus; test: Effective dose at which the sympathetic nerve activity (SND) has been reduced to 50% of the pretreatment value in anesthetized cat; type: functional
[27] = system: Felis catus; test: Maximum decrease of sympathetic nerve activity (SND) in anesthetized cat; type: functional; set-up: scale not given: the % may be the effect or the level left
[28] = species on record: Felis catus; test: Percent of arterial blood pressure at sympathetic nerve activity (SND) dose value was determined; type: functional

T2 sequence (P61169 whole entry): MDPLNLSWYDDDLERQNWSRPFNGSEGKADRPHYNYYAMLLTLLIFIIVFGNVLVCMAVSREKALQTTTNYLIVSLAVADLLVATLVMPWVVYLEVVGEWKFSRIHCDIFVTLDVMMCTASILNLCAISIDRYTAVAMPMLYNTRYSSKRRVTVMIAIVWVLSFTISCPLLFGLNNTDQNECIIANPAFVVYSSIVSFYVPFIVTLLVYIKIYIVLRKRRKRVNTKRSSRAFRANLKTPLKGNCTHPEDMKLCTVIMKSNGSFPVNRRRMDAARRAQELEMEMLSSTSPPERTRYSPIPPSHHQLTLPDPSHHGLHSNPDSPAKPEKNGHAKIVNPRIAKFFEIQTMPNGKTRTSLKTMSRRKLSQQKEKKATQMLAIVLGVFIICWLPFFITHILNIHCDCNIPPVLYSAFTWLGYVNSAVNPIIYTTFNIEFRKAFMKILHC
T1 sequence (P14416 whole entry): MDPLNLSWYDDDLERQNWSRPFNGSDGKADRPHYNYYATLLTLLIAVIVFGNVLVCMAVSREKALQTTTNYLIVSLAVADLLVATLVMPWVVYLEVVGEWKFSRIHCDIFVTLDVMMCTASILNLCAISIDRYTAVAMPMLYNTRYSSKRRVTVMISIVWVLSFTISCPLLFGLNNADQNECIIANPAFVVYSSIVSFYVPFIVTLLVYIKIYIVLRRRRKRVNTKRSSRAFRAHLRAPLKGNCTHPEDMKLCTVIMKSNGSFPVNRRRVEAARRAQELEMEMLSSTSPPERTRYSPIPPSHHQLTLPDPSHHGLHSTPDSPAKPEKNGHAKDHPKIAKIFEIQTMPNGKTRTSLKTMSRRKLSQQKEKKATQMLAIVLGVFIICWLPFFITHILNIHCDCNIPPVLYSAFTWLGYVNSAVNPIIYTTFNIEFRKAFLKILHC

COc1cccc2c1C1CCN(CCc3ccccc3)[C@@H]1CC2 (some centres undefined)
Ki [1]: > 0.339 µM

CCCN1CC[C@H]2c3c(O)cccc3CC[C@H]21
Max temperature decrease [2]: 5.5
IC50 [3]: > 1 µM
ED50 [4]: 4.9 µmol/kg
Max temperature decrease [5]: 7.3
ED50 [6]: 0.3 µmol/kg

C=CCN1CC[C@@H]2c3cccc(OC)c3CC[C@@H]21
ED50 ([7]; Rattus norvegicus, Substantia nigra pars compacta, iv, read-out: ED50): > 3.6 µmol/kg

CCCN1CC[C@@H]2c3c(O)cccc3CC[C@@H]21
Intrinsic activity [8]: 0%
Max temperature decrease [2]: 8.5
IC50 [3]: > 1 µM
ED50 [4]: 21 µmol/kg
Max temperature decrease [5]: 5.5
ED50 [6]: 0.05 µmol/kg

CCCN1CC[C@@H]2c3c(cccc3OC)CC[C@@H]21
Ki [9]: > 1 µM

C=CCN1CCC2c3cccc(OC)c3CC[C@H]21 (mixture of isomers)
Intrinsic activity [8]: 0%
ED50 [7]: 0.42 µM/kg and 0.88 µM/kg
Locomotor activity [10]: 9
Locomotor activity [11]: 91
Locomotor activity [12]: 73
Locomotor activity [13]: 9
Locomotor activity [14]: 92
Control [15]: 98%
Locomotor activity [16]: 59
Locomotor activity [17]: 17
Control [18]: 147%
Locomotor activity [19]: 112
Locomotor activity [20]: 27
Locomotor activity [21]: 1
Control [22]: 132%
Ki [9]: 0.042 µM
Locomotor activity [23]: 33
Locomotor activity [24]: 15
ED50 [6]: > 107 µmol/kg
Control [25]: -4%

CCCN1[C@@H]2CCc3cccc(OC)c3C2C[C@@H]1C (mixture of isomers)
Control [15]: 73%
ED50 [26]: 0.17 µmol/kg
Max temperature decrease [2]: 6.8
IC50 [3]: > 1 µM
ED50 [4]: 338 µmol/kg
Max temperature decrease [5]: 3
Control [27]: 82%
BP [28]: 42%
ED50 [6]: 14 µmol/kg

CCCN1CCC2c3c(cccc3OC)CCC21 (racemic)
Max temperature decrease [2]: 1.5
ED50 [4]: 109 µmol/kg
Max temperature decrease [5]: 6
Ki [9]: > 1 µM
ED50 [6]: 20 µmol/kg

C=CCN1CC[C@@H]2c3cccc(OC)c3CC[C@H]21 (racemic)
Intrinsic activity [8]: 0%
Locomotor activity [10]: 81
Locomotor activity [11]: 78
Locomotor activity [12]: 156
Locomotor activity [13]: 49
Locomotor activity [14]: 106
Control [15]: 61%
Locomotor activity [16]: 116
Locomotor activity [17]: 54
Max temperature decrease [2]: 3.4
Control [18]: -51%
Locomotor activity [19]: 76
Locomotor activity [20]: 142
Locomotor activity [21]: 13
Control [22]: 105%
Ki [9]: 0.099 µM
Locomotor activity [23]: 42
Locomotor activity [24]: 4
ED50 [6]: > 107 µmol/kg
Control [25]: 95%

COc1cccc2c1CC[C@@H]1[C@@H]2CCN1CC1CC1 (racemic)
Ki [9]: > 10 µM
